Test results reported in patent US20110166078A1, “OLIGOSACCHARIDE COMPOUNDS FOR USE IN MOBILISING STEM CELLS” (ENDOTIS PHARMA, priority 2008, published 2011).

Tested on: hematopoietic stem cells (LSK cells) in blood
Experiment: Hematopoietic stem cell mobilisation, sequential G-CSF, AMD3100 and compound 240
Format: in vivo
Conditions: compound 240 i.v. 15 mg/kg 30 min after AMD3100 s.c. 5 mg/kg, after G-CSF 2.5 μg s.c.; C57BL/6 mice; FIG. 5
Method: During cancer treatment, patients receive injections of a cytokine (G-CSF) mobilising stem cells. These stem cells are then collected from the peripheral blood using an apheresis machine. Apheresis is usually performed for several days until enough stem cells have been collected to support treatment with high-dose chemotherapy and/or radiotherapy. In the experiments of the present invention, different doses (5, 15 and 30 mg/kg body weight (bw)) and administration routes (intraperitoneal, intravenous and subcutaneous) were tested along time course experiments in mice (30 min, 1 h, 3 h and 5 h).
C57BL/6 mice (8-10 weeks old, obtained from Jackson Laboratory, USA) were housed 15 days in the CEA/DSV/iRCM animal facilities. Animal care was in accordance with French Government procedures (Services Veterinaires de la Sante et de la Production Animale, Ministere de l'Agriculture, France).
i) intravenously: Anesthetized mice were placed on their left side. Injection of 100 μl of compound was performed with insulin syringe into the retro-orbital sinus of the right eye of mice. […]
Two months aged-C57BL/6 mice were injected s.c. with 2.5 μg of G-CSF twice a day for 2 days. […] White blood cells were counted and labeled with lineage-PE-Cy7 (L), Sca-PE (S), and cKit-APC (K) antibodies for data acquisition by cytometry. […]

C#CCCCOC1OC(COS(=O)(=O)[O-])C(OC2OC(C(=O)[O-])C(OC3OC(COS(=O)(=O)[O-])C(OC4OC(C(=O)[O-])C(OC5OC(COS(=O)(=O)[O-])C(OC6OC(C(=O)[O-])C(OC7OC(COS(=O)(=O)[O-])C(OC8OC(C(=O)[O-])C(OCc9ccccc9)C(OCc9ccccc9)C8OS(=O)(=O)[O-])C(OCc8ccccc8)C7NS(=O)(=O)[O-])C(OCc7ccccc7)C6OS(=O)(=O)[O-])C(OCc6ccccc6)C5NS(=O)(=O)[O-])C(OCc5ccccc5)C4OS(=O)(=O)[O-])C(OCc4ccccc4)C3NS(=O)(=O)[O-])C(OCc3ccccc3)C2OS(=O)(=O)[O-])C(OCc2ccccc2)C1NS(=O)(=O)[O-].[Na+].[Na+].[Na+].[Na+].[Na+].[Na+].[Na+].[Na+].[Na+].[Na+].[Na+].[Na+].[Na+].[Na+].[Na+].[Na+] (stereo not shown) [Compound 240]
HSCs mobilized, times more than with G-CSF+AMD3100 combination: About 3 times
